Assay results from PubChem BioAssay (NCI).
Values joined by “and” are separate entries in the source; they are usually repeats but may differ in a detail not shown here. Equal values may be shown once.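 All cell lines were grown in 96-well plates and treated with compound for 48 hours. Here, GI50 denotes the concentration required for 50% inhibition of growth. At the TGI there is no net growth.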

What was measured:
Experiment in all cases: DTP human tumour cell line panel, 48 h
[1] = system: UACC-62 melanoma
[2] = system: SK-OV-3 ovarian
[3] = system: SNB-19 CNS
[4] = system: K-562 leukemia
[5] = system: IGROV1 ovarian
[6] = system: NCI-H23 lung
[7] = system: UACC-257 melanoma
[8] = system: OVCAR-5 ovarian
[9] = system: SK-MEL-2 melanoma
[10] = system: HCT-116 colon
[11] = system: M14 melanoma
[12] = system: COLO 205 colon
[13] = system: CAKI-1 renal
[14] = system: MCF7 breast
[15] = system: PC-3 prostate
[16] = system: NCI-H460 lung
[17] = system: KM12 colon
[18] = system: LOX IMVI melanoma
[19] = system: MOLT-4 leukemia
[20] = system: SF-295 CNS
[21] = system: SNB-75 CNS
[22] = system: T-47D breast
[23] = system: RXF 393 renal
[24] = system: HOP-92 NSCLC
[25] = system: A549 NSCLC
[26] = system: MDA-MB-231 breast
[27] = system: CCRF-CEM leukemia
[28] = system: BT-549 breast
[29] = system: HCC-2998 colon
[30] = system: NCI-H522 lung
[31] = system: A498 renal
[32] = system: U251 CNS
[33] = system: HS 578T breast
[34] = system: OVCAR-4 ovarian
[35] = system: HL-60(TB) leukemia
[36] = system: SF-539 CNS
[37] = system: UO-31 renal
[38] = system: OVCAR-3 ovarian
[39] = system: SF-268 CNS
[40] = system: SR leukemia
[41] = system: NCI/ADR-RES ovarian
[42] = system: HT29 colon
[43] = system: MALME-3M melanoma
[44] = system: ACHN renal
[45] = system: 786-0 renal
[46] = system: RPMI-8226 leukemia
[47] = system: HCT-15 colon
[48] = system: SN12C renal
[49] = system: OVCAR-8 ovarian
[50] = system: HOP-62 NSCLC
[51] = system: SW-620 colon
[52] = system: MDA-N
[53] = system: NCI-H226 lung
[54] = system: MDA-MB-435
[55] = system: SK-MEL-28 melanoma
[56] = system: TK-10 renal
[57] = system: EKVX NSCLC
[58] = system: SK-MEL-5 melanoma
[59] = system: DU-145 prostate
[60] = system: KM20L2 colon
[61] = system: XF 498 CNS
[62] = system: DLD-1 colon
[63] = system: DMS 273 small cell lung
[64] = system: SNB-78 CNS
[65] = system: DMS 114 small cell lung
[66] = system: LXFL 529 NSCLC
[67] = system: M19-MEL melanoma

## C[C@H](CCc1nc(C#N)c(N)o1)[C@H]1CC[C@H]2[C@@H]3[C@@H](O)CC4C[C@@H](O)CC[C@]4(C)[C@H]3C[C@@H](O)[C@]12C (stereo partly specified)
[1]
  TGI: 30.5 µM
[2]
  TGI: 73.8 µM
[3]
  TGI: 57.5 µM
[4]
  TGI: 86.4 µM
[5]
  TGI: 33.2 µM
[6]
  TGI: 58.5 µM
[7]
  TGI: 50.6 µM
[8]
  TGI: 58.3 µM
[9]
  TGI: 45.1 µM
[10]
  TGI: 50 µM
[11]
  TGI: > 75.8 µM
[12]
  TGI: 40.5 µM
[13]
  TGI: > 100 µM
[14]
  TGI: > 95.4 µM
[15]
  TGI: 49.1 µM
[16]
  TGI: 54.9 µM
[17]
  TGI: 53.8 µM
[18]
  TGI: 29.2 µM
[19]
  TGI: > 59.7 µM
[20]
  TGI: 53.2 µM
[21]
  TGI: 54 µM
[22]
  TGI: 85.6 µM
[23]
  TGI: 35.9 µM
[24]
  TGI: 67 µM
[25]
  TGI: > 100 µM
[26]
  TGI: 67.1 µM
[27]
  TGI: > 25.2 µM
[28]
  TGI: 25.3 µM
[29]
  TGI: 36.5 µM
[30]
  TGI: 18.4 µM
[31]
  TGI: > 100 µM
[32]
  TGI: 49.5 µM
[33]
  TGI: 62.6 µM
[34]
  TGI: > 87.6 µM
[35]
  TGI: > 26.9 µM
[36]
  TGI: 59.5 µM
[37]
  TGI: 61.8 µM
[38]
  TGI: > 56.9 µM
[39]
  TGI: > 91.5 µM
[40]
  TGI: > 61.8 µM
[41]
  TGI: > 100 µM
[42]
  TGI: 45.6 µM
[43]
  TGI: 29.3 µM
[44]
  TGI: > 90 µM
[45]
  TGI: > 86.7 µM
[46]
  TGI: 28.6 µM
[47]
  TGI: > 93 µM
[48]
  TGI: > 79.6 µM
[49]
  TGI: 41.7 µM
[50]
  TGI: > 54.4 µM
[51]
  TGI: 55 µM
[52]
  TGI: 77.8 µM
[53]
  TGI: 62.9 µM
[54]
  TGI: 48.8 µM
[55]
  TGI: 47.2 µM
[56]
  TGI: > 68.1 µM
[57]
  TGI: 98.1 µM
[58]
  TGI: 40.9 µM
[59]
  TGI: > 76.3 µM

## CO[C@H](/C(C)=C/C=C/C(C)=C/c1coc(C)n1)[C@H](C)[C@H]1C[C@@H](O)[C@@]2(C)O[C@H]2/C=C/[C@@H](C)[C@@H]2C[C@@H](CC(=O)O2)C[C@H]2O[C@@H]2C(=O)O1
[7]
  TGI: 5 µM and 50 µM and 11.4 µM
[8]
  TGI: 3.99 µM and 31 µM and > 31.6 µM
[11]
  GI50: 0.1 pM
[15]
  TGI: 2.37e-06 µM
[26]
  GI50: 0.942 pM
[28]
  GI50: 0.0133 nM
  TGI: 2.81 µM
[40]
  TGI: > 100 µM
[44]
  TGI: > 64 µM
[45]
  GI50: 0.106 pM
[60]
  TGI: 0.0005 µM
[52]
  TGI: 2.15e-06 µM
[56]
  GI50: 0.042 µM
  TGI: > 69.5 µM
[61]
  TGI: 2.25 µM and 0.576 µM

## Cc1ccc(NC(=O)SCCC(=O)O)cc1NC(=O)SCCC(=O)O
[62]
  TGI: > 10 µM
[3]
  TGI: > 100 µM
[4]
  TGI: > 100 µM
[5]
  TGI: > 100 µM
[6]
  TGI: > 100 µM
[7]
  TGI: > 100 µM
[8]
  TGI: > 100 µM
[9]
  TGI: > 100 µM
[10]
  TGI: > 100 µM
[11]
  TGI: > 100 µM
[12]
  TGI: > 10 µM
[13]
  TGI: > 100 µM
[16]
  TGI: > 100 µM
[17]
  TGI: > 100 µM
[18]
  TGI: > 100 µM
[19]
  TGI: > 100 µM
[20]
  TGI: > 100 µM
[23]
  TGI: > 100 µM
[63]
  TGI: > 10 µM
[25]
  TGI: > 100 µM
[27]
  TGI: > 100 µM
[64]
  TGI: > 100 µM
[29]
  TGI: > 100 µM
[30]
  TGI: > 100 µM
[31]
  TGI: > 100 µM
[32]
  TGI: > 100 µM
[34]
  TGI: > 100 µM
[35]
  TGI: > 100 µM
[36]
  TGI: > 100 µM
[37]
  TGI: > 100 µM
[38]
  TGI: > 100 µM
[39]
  TGI: > 100 µM
[40]
  TGI: > 100 µM
[42]
  TGI: > 100 µM
[44]
  TGI: > 100 µM
[45]
  TGI: > 100 µM
[46]
  TGI: > 100 µM
[47]
  TGI: > 100 µM
[48]
  TGI: > 100 µM
[60]
  TGI: > 100 µM
[49]
  TGI: > 100 µM
[50]
  TGI: > 100 µM
[51]
  TGI: > 100 µM
[53]
  TGI: > 100 µM
[55]
  TGI: > 100 µM
[56]
  TGI: > 100 µM
[57]
  TGI: > 100 µM
[65]
  TGI: > 100 µM
[66]
  TGI: > 100 µM

## CC1=NN(C(=O)c2ccc(Cl)cc2)C(=O)/C1=C/c1cccc(O)c1
[62]
  TGI: > 100 µM
[1]
  TGI: > 100 µM
[2]
  TGI: > 100 µM
[3]
  TGI: > 100 µM
[4]
  TGI: > 100 µM
[5]
  TGI: > 100 µM
[6]
  TGI: > 100 µM
[7]
  TGI: > 100 µM
[8]
  TGI: > 100 µM
[9]
  TGI: > 100 µM
[10]
  TGI: > 100 µM
[11]
  TGI: > 100 µM
[12]
  TGI: > 100 µM
[13]
  TGI: > 100 µM
[16]
  TGI: > 100 µM
[17]
  TGI: > 100 µM
[18]
  TGI: > 100 µM
[19]
  TGI: > 100 µM
[20]
  TGI: > 100 µM
[23]
  TGI: > 100 µM
[24]
  TGI: > 100 µM
[25]
  TGI: > 100 µM
[27]
  TGI: > 100 µM
[64]
  TGI: > 100 µM
[29]
  TGI: > 100 µM
[30]
  TGI: > 100 µM
[31]
  TGI: > 100 µM
[32]
  TGI: > 100 µM
[34]
  TGI: > 100 µM
[35]
  TGI: > 100 µM
[36]
  TGI: > 100 µM
[37]
  TGI: > 100 µM
[38]
  TGI: > 100 µM
[39]
  TGI: > 100 µM
[42]
  TGI: > 100 µM
[43]
  TGI: > 100 µM
[44]
  TGI: > 100 µM
[45]
  TGI: > 100 µM
[46]
  TGI: > 100 µM
[47]
  TGI: > 100 µM
[48]
  TGI: > 100 µM
[60]
  TGI: > 100 µM
[49]
  TGI: > 100 µM
[50]
  TGI: > 100 µM
[51]
  TGI: > 100 µM
[53]
  TGI: > 100 µM
[55]
  TGI: > 100 µM
[67]
  TGI: > 100 µM
[56]
  TGI: > 100 µM
[57]
  TGI: > 100 µM
[58]
  TGI: > 100 µM
[65]
  TGI: > 100 µM
[66]
  TGI: > 100 µM
